According to patent US20110086759A1, “CHEMICAL COMPOUNDS” (SYNGENTA CROP PROTECTION, INC., priority 2007, published 2011):

Key:
Assay type in all cases: in vivo
Setaria faberi (SETFA) [1] = assay: Pre-emergence biological efficacy, glasshouse pot test; details: 312 h, pre-emergence, 1,000 g/ha, evaluated after 13 days (100=total damage; 0=no damage), read-out: Percentage damage SETFA
Summary of the method: (§1)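 Sow seeds in pots of standard soil; after one day in the glasshouse, spray test compound (1000 or 250 g/ha) in aqueous acetone/water with 0.5% Tween 20. Grow 13 days at 24/16 °C day/night, then score damage from 0 to 100.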

[2] = system: Alopecurus myosuroides (ALOMY); assay: as above; details: 312 h, pre-emergence, 1,000 g/ha, evaluated after 13 days (100=total damage; 0=no damage), read-out: Percentage damage ALOMY
Summary of the method: as §1

[3] = system: Echinochloa crus-galli (ECHCG); assay: as above; details: 312 h, pre-emergence, 1,000 g/ha, evaluated after 13 days (100=total damage; 0=no damage), read-out: Percentage damage ECHCG
Summary of the method: as §1

[4] = system: Amaranthus retoflexus (AMARE); assay: as above; details: Amaranthus retroflexus, 312 h; pre-emergence, 1,000 g/ha, evaluated after 13 days (100=total damage; 0=no damage); read-out: Percentage damage AMARE
Summary of the method: as §1

Solanum nigrum (SOLNI) [5] = assay: as above; details: 312 h, pre-emergence, 1,000 g/ha, evaluated after 13 days (100=total damage; 0=no damage), read-out: Percentage damage SOLNI
Summary of the method: as §1

[6] = system: Ipomea hederaceae (IPOHE); assay: as above; details: Ipomoea hederacea, 312 h; pre-emergence, 1,000 g/ha, evaluated after 13 days (100=total damage; 0=no damage); read-out: Percentage damage IPOHE
Summary of the method: as §1

Setaria faberi (SETFA) [7] = assay: Post-emergence biological efficacy, glasshouse pot test; details: 312 h, post-emergence, 1,000 g/ha, evaluated after 13 days (100=total damage; 0=no damage), read-out: Percentage damage caused to weed species, SETFA
Summary of the method: (§2)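 Scored 13 days after spraying on a 0 (no damage) to 100 (total damage) scale. Treatment was a post-emergence spray at 1000 or 250 g/ha, from acetone/water 50:50 plus 0.5% Tween 20, onto 8-day-old plants in soil pots. Growth at 24/16° C, 14 h photoperiod, 65% humidity, watered twice daily.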

[8] = system: Alopecurus myosuroides (ALOMY); assay: as above; details: 312 h, post-emergence, 1,000 g/ha, evaluated after 13 days (100=total damage; 0=no damage), read-out: Percentage damage caused to weed species, ALOMY
Summary of the method: as §2

[9] = system: Echinochloa crus-galli (ECHCG); assay: as above; details: 312 h, post-emergence, 1,000 g/ha, evaluated after 13 days (100=total damage; 0=no damage), read-out: Percentage damage caused to weed species, ECHCG
Summary of the method: as §2

[10] = system: Amaranthus retoflexus (AMARE); assay: as above; details: Amaranthus retroflexus, 312 h; post-emergence, 1,000 g/ha, evaluated after 13 days (100=total damage; 0=no damage); read-out: Percentage damage caused to weed species, AMARE
Summary of the method: as §2

Solanum nigrum (SOLNI) [11] = assay: as above; details: 312 h, post-emergence, 1,000 g/ha, evaluated after 13 days (100=total damage; 0=no damage), read-out: Percentage damage caused to weed species, SOLNI
Summary of the method: as §2

[12] = system: Ipomea hederaceae (IPOHE); assay: as above; details: Ipomoea hederacea, 312 h; post-emergence, 1,000 g/ha, evaluated after 13 days (100=total damage; 0=no damage); read-out: Percentage damage caused to weed species, IPOHE
Summary of the method: as §2

SMILES | pest or weed control at 1000 g/ha (Setaria faberi (SETFA) [1]) | pest or weed control at 1000 g/ha [2] | pest or weed control at 1000 g/ha [3] | pest or weed control at 1000 g/ha [4] | pest or weed control at 1000 g/ha (Solanum nigrum (SOLNI) [5]) | pest or weed control at 1000 g/ha [6] | pest or weed control at 1000 g/ha (Setaria faberi (SETFA) [7]) | pest or weed control at 1000 g/ha [8] | pest or weed control at 1000 g/ha [9] | pest or weed control at 1000 g/ha [10] | pest or weed control at 1000 g/ha (Solanum nigrum (SOLNI) [11]) | pest or weed control at 1000 g/ha [12]
COC(=O)c1nc(C2CC2)nc(NCC2CCCCCCC2)c1Cl [Compound 4-52, 5-Chloro-4-cyclooctylmethyl-amino-2-cyclo-propyl-6-methoxy-carbonylpyrimidine] | 0% | 0% | 0% | 40% | 30% | 0% | 20% | 0% | 20% | 30% | 60% | 50%
COC(=O)c1nc(C2CC2)nc(NCC2CCCO2)c1Cl (stereo not drawn) [Compound 4-53, 5-Chloro-2-cyclopropyl-6-methoxy carbonyl-4-(tetrahydrofuran-2-ylmethylamino)-pyrimidine] | 0% | 10% | 0% | 60% | 40% | 60% | 40% | 20% | 30% | 100% | 90% | 100%
COC(=O)c1nc(C2CC2)nc(NCC2(OC)C=CC(OC)O2)c1Cl (stereo not drawn) [Compound 4-55, 5-Chloro-2-cyclopropyl-4-[(2,5-dihydro-2,5-dimethoxy-furan-2-yl)methylamino]-6-methoxycarbonyl-pyrimidine] | 0% | 0% | 0% | 100% | 10% | 60% | 30% | 10% | 0% | 100% | 80% | 50%
COC(=O)c1nc(C2CC2)nc(NCC2CCC=CO2)c1Cl (stereo not drawn) [Compound 4-56, 5-Chloro-2-cyclopropyl-4-[(3,4-dihydro-2H-pyran-2-yl)methylamino]-6-methoxy-carbonylpyrimidine] | 20% | 40% | 30% | 100% | 90% | 100% | 40% | 20% | 30% | 100% | 80% | 80%
COC(=O)c1nc(C2CC2)nc(NCC2CCN(OC(=O)C(C)(C)C)CC2)c1Cl [Compound 4-58] | 0% | 0% | 0% | 80% | 30% | 20% | 50% | 0% | 40% | 70% | 70% | 50%
COC(=O)c1nc(C2CC2)nc(NCC2(O)CCc3ccc(OC)cc32)c1Cl (stereo not drawn) [Compound 4-59, 5-Chloro-2-cyclopropyl-4-[(1-hydroxy-6-methoxyindan-1-yl)methylamino]-6-methoxycarbonyl-pyrimidine] | 10% | 20% | 40% | 80% | 80% | 80% | 80% | 50% | 60% | 100% | 100% | 100%
COC(=O)c1nc(C2CC2)nc(NCc2ccccc2)c1Cl [Compound 4-60, 5-chloro-2-cyclopropyl-6-methoxycarbonyl-4-phenylmethylaminopyrimidine] | 30% | 0% | 0% | 60% | 50% | 60% | 90% | 20% | 90% | 100% | 100% | 100%
COC(=O)c1nc(C2CC2)nc(NCc2cccc(Cl)c2)c1Cl [Compound 4-62] | 10% | 10% | 20% | 100% | 90% | 60% | 90% | 30% | 70% | 100% | 100% | 100%
COC(=O)c1nc(C2CC2)nc(NCc2ccc(Cl)cc2)c1Cl [Compound 4-63, 5-Chloro-4-(4-chlorophenylmethyl-amino)-2-cyclopropyl-6-methoxycarbonyl-pyrimidine] | 20% | 20% | 20% | 60% | 60% | 60% | 80% | 40% | 50% | 100% | 90% | 80%
COC(=O)c1nc(C2CC2)nc(NCc2cccc(F)c2)c1Cl [Compound 4-65, 5-Chloro-2-cyclopropyl-4-(3-fluorophenylmethyl-amino)-6-methoxycarbonyl-pyrimidine] | 40% | 20% | 60% | 80% | 80% | 70% | 100% | 20% | 80% | 100% | 100% | 100%
COC(=O)c1nc(C2CC2)nc(NCc2ccc(F)cc2)c1Cl [Compound 4-66, 5-Chloro-2-cyclopropyl-4-(4-fluorophenyl-methylamino)-6-methoxy-carbonylpyrimidine] | 80% | 40% | 50% | 90% | 90% | 90% | 90% | 20% | 70% | 100% | 100% | 100%
